According to US10350210B2, “EGFR and ALK dual inhibitor” (PRECEDO PHARMACEUTICALS CO., LTD, priority 2015, dated 2019):

Assays:
[1] = tested on: HCC4006; test: Growth of cancer cells (Cell Titer-Glo viability), HCC4006; assay type: cell-based; settings: Homo sapiens; HCC4006 (mutant EGFR del19), 72 hrs
Source text: (§1) By testing the effect of the novel kinase inhibitors on the proliferation of cancer cells, the selectivity of the compounds of the present disclosure in inhibiting the proliferation of cancer cells was further assessed. In this example, human non-small cell lung cancer cell NCI-H1975 (expressing EGFR L858R/T790M double mutant gene), human skin squamous carcinoma cell A431 (expressing wild-type EGFR gene), non-small cell lung cancer NCI-H3255 (expressing EGFR L858R mutant gene), non-small cell lung cancer cell NCI-H3122 (expressing ALK gene), human non-small cell lung cancer cell A549 (expressing wild-type EGFR gene), human non-small cell lung cancer cell NCI-H2122 (expressing wild-type EGFR gene), human non-small cell lung cancer cell NCI-H460 (expressing wild-type EGFR gene), human non-small cell lung cancer cell PC-9 (expressing EGFR delE746_A750 mutant gene), Chinese hamster ovary cell CHO (Cricetulus griseus, hamster, Chinese, ovary), Chinese hamster lung cell CHL, human non-small cell lung cancer cell HCC827 (expressing mutant EGFR del19 gene), human lung adenocarcinoma cell HCC4006 (expressing mutant EGFR del19 gene), human non-small cell lung cancer cell NCI-H2228 (expressing wild-type ALK gene), and mouse primary B cell BaF3 were used, and the above cells were all purchased from ATCC (US). In addition, mouse BaF3-TEL-ALK (stably expressing ALK kinase), mouse BaF3-ALK-F1174L (stably expressing mutant ALK F1174L kinase), mouse BaF3-NPM-ALK (stably expressing ALK kinase), mouse BaF3-TEL-EGFR (stably expressing EGFR kinase), mouse BaF3-TEL-EGFR-T790M (stably expressing EGFR T790M mutant kinase), mouse BaF3-FL-EGFR-Del19 (stably expressing EGFR delE746_A750 mutant kinase), mouse BaF3-TEL-EGFR-L858R (stably expressing EGFR L858R mutant kinase), mouse BaF3-FL-EGFR-T790M-L858R (stably expressing EGFR T790M/L858R mutant kinase), mouse BaF3-TEL-INSR (stably expressing INSR protein), mouse BaF3-TEL-IGF1R (stably expressing IGF1R Protein), mouse BaF3-EML4-ALK (stably expressing EML4-ALK Protein), mouse BaF3-TEL-JAK3 (stably expressing JAK3 kinase protein), mouse BaF3-TEL-CSF1R (stably expressing CSF1R protein), and mouse BaF3-TEL-ALK-F1196M (stably expressing ALK F1196M mutant kinase) were also used in this example. The above cell lines were all established by our laboratory via the following process: kinase proteins or protein domain sequences of human ALK, ALK F1174L, EGFR, EGFR T790M, EGFR delE746_A750, EGFR L858, EGFR T790M/L858R, INSR, IGF1R, EML4-ALK, JAK3, CSF1R, ALK F1196M were amplified respectively by PCR, and were respectively inserted into MSCV-Puro vector (Clontech) with N-terminal TEL fragments and/or NPM fragments and/or TPR fragments; the resultants were stably transfected into mouse BaF3 cells by the means of retrovirus, and the IL-3 growth factors were removed, and eventually the ALK, ALK F1174L, EGFR, EGFR T790M, EGFR delE746_A750, EGFR L858, EGFR T790M/L858R, INSR, IGF1R, EML4-ALK, JAK3, CSF1R, ALK F1196M-transferred protein dependent cell lines were obtained.
(§2) The number of viable cells was determined quantitatively by a microplate reader using Cell Titer-Glo® (Promega, US) chemiluminescence cell viability assay kit.

[2] = tested on: NCI-H3122; test: Growth of cancer cells (Cell Titer-Glo viability), NCI-H3122; assay type: cell-based; settings: Homo sapiens; NCI-H3122 (expressing ALK gene), 72 hrs; read-out: GI50
Source text: as §1, §2

[3] = tested on: HCC827; test: Growth of cancer cells (Cell Titer-Glo viability), HCC827; assay type: cell-based; settings: Homo sapiens; HCC827 (mutant EGFR del19), 72 hrs
Source text: as §1, §2

[4] = tested on: A549; test: Growth of cancer cells (Cell Titer-Glo viability), A549; assay type: cell-based; settings: Homo sapiens; A549 (wild-type EGFR), 72 hrs
Source text: as §1, §2

[5] = tested on: BaF3; test: Cell growth (Cell Titer-Glo viability), BaF3; assay type: cell-based; settings: BaF3 mouse primary B cell, 72 hrs
Source text: as §1, §2

[6] = tested on: NCI-H2228; test: Growth of cancer cells (Cell Titer-Glo viability), NCI-H2228; assay type: cell-based; settings: Homo sapiens; NCI-H2228 (wild-type ALK), 72 hrs
Source text: as §1, §2

[7] = tested on: A431; test: Growth of cancer cells (Cell Titer-Glo viability), A431; assay type: cell-based; settings: Homo sapiens, A-431; A431 (wild-type EGFR), 72 hrs; read-out: GI50
Source text: as §1, §2

[8] = tested on: CHO; test: Cell growth (Cell Titer-Glo viability), CHO; assay type: cell-based, Chinese hamster; settings: Cricetulus griseus; CHO Chinese hamster ovary cell, 72 hrs; read-out: GI50
Source text: as §1, §2

[9] = tested on: CHL; test: Cell growth (Cell Titer-Glo viability), CHL; assay type: cell-based, Chinese hamster; settings: Cricetulus griseus; CHL Chinese hamster lung cell, 72 hrs; read-out: GI50
Source text: as §1, §2

[10] = tested on: BaF3-TEL-ALK; test: Cell growth (Cell Titer-Glo viability), BaF3-TEL-ALK; assay type: cell-based; settings: Mus musculus; BaF3-TEL-ALK (stably expressing ALK kinase), 72 hrs
Source text: as §1, §2

[11] = tested on: BaF3-FL-EGFR-Del19; test: Cell growth (Cell Titer-Glo viability), BaF3-FL-EGFR-Del19; assay type: cell-based; settings: Mus musculus; BaF3-FL-EGFR-Del19 (EGFR delE746_A750 mutant kinase), 72 hrs
Source text: as §1, §2

[12] = tested on: BaF3-TEL-EGFR-T790M; test: Cell growth (Cell Titer-Glo viability), BaF3-TEL-EGFR-T790M; assay type: cell-based; settings: Mus musculus; BaF3-TEL-EGFR-T790M (EGFR T790M mutant kinase), 72 hrs
Source text: as §1, §2

[13] = tested on: NCI-H2122; test: Growth of cancer cells (Cell Titer-Glo viability), NCI-H2122; assay type: cell-based; settings: Homo sapiens; NCI-H2122 (wild-type EGFR), 72 hrs
Source text: as §1, §2

[14] = tested on: PC-9; test: Growth of cancer cells (Cell Titer-Glo viability), PC-9; assay type: cell-based; settings: Homo sapiens; PC-9 (EGFR delE746_A750 mutant), 72 hrs
Source text: as §1, §2

[15] = tested on: BaF3-ALK-F1174L; test: Cell growth (Cell Titer-Glo viability), BaF3-ALK-F1174L; assay type: cell-based; settings: Mus musculus; BaF3-ALK-F1174L (mutant ALK F1174L kinase), 72 hrs
Source text: as §1, §2

[16] = tested on: NCI-H1975; test: Growth of cancer cells (Cell Titer-Glo viability), NCI-H1975; assay type: cell-based; settings: Homo sapiens; NCI-H1975 (EGFR L858R/T790M double mutant), 72 hrs
Source text: as §1, §2

[17] = tested on: BaF3-TEL-EGFR; test: Cell growth (Cell Titer-Glo viability), BaF3-TEL-EGFR; assay type: cell-based; settings: Mus musculus; BaF3-TEL-EGFR (stably expressing EGFR kinase), 72 hrs
Source text: as §1, §2

[18] = tested on: BaF3-NPM-ALK; test: Cell growth (Cell Titer-Glo viability), BaF3-NPM-ALK; assay type: cell-based; settings: Mus musculus; BaF3-NPM-ALK (stably expressing ALK kinase), 72 hrs
Source text: as §1, §2

[19] = tested on: BaF3-TEL-INSR; test: Cell growth (Cell Titer-Glo viability), BaF3-TEL-INSR; assay type: cell-based; settings: Mus musculus; BaF3-TEL-INSR (stably expressing INSR protein), 72 hrs
Source text: as §1, §2

[20] = tested on: NCI-H3255; test: Growth of cancer cells (Cell Titer-Glo viability), NCI-H3255; assay type: cell-based; settings: Homo sapiens; NCI-H3255 (EGFR L858R mutant), 72 hrs
Source text: as §1, §2

C=CC(=O)Nc1cc(Nc2ncc(Cl)c(Nc3ccccc3S(=O)(=O)C(C)C)n2)c(OC)cc1N1CCN(S(C)(=O)=O)CC1 [Compound 5, N-(5-(5-chloro-4-(2-(isopropylsulfonyl)phenylamino)pyrimidin-2-ylamino)-4-methoxy-2-(4-(methylsulfonyl)piperazin-1-yl)phenyl)acrylamide]
GI50 [1]: 160 nM
GI50 [2]: < 0.3 nM
GI50 [3]: 44 nM
GI50 [4]: 3300 nM
GI50 [5]: 2800 nM
GI50 [6]: 240 nM
GI50 [7]: 1100 nM
GI50 [8]: 5200 nM
GI50 [9]: 2300 nM
GI50 [10]: 10 nM
GI50 [11]: 7 nM
GI50 [12]: 53 nM
GI50 [13]: 170 nM
GI50 [14]: 39 nM
GI50 [15]: 2300 nM
GI50 [16]: 40 nM

C=CC(=O)Nc1cc(Nc2ncc(Cl)c(Nc3ccccc3S(=O)(=O)N(C)C)n2)c(OC)cc1N1CCN(C)CC1 [Compound 32, N-(5-(5-chloro-4-(2-(N,N-dimethylsulfamido)phenylamino)pyrimidin-2-ylamino)-4-methoxy-2-(4-methylpiperazin-1-yl)phenyl)acrylamide]
GI50 [2]: 11 nM
GI50 [3]: < 3 nM
GI50 [4]: 600 nM
GI50 [5]: 1100 nM
GI50 [6]: 490 nM
GI50 [7]: 220 nM
GI50 [8]: 340 nM
GI50 [17]: 500 nM
GI50 [9]: 1600 nM
GI50 [10]: > 10000 nM
GI50 [11]: < 0.3 nM
GI50 [12]: 10 nM
GI50 [13]: 370 nM
GI50 [14]: < 3 nM
GI50 [15]: 530 nM
GI50 [16]: 31 nM

C=CC(=O)Nc1cc(Nc2ncc(Cl)c(Nc3ccccc3P(C)(C)=O)n2)c(OC)cc1N1CCC(N(C)C)CC1 [Compound 49, N-(5-(5-chloro-4-(2-(dimethylphosphinoyl)phenylamino)pyrimidin-2-ylamino)-2-(4-(dimethylamino)piperidin-1-yl)-4-methoxyphenyl)acrylamide]
GI50 [2]: 140 nM
GI50 [3]: 15 nM
GI50 [4]: 8600 nM
GI50 [5]: > 10000 nM
GI50 [18]: 600 nM
GI50 [10]: 450 nM
GI50 [19]: 920 nM
GI50 [14]: 120 nM
GI50 [16]: 220 nM
GI50 [20]: 350 nM

C=CC(=O)Nc1cc(Nc2ncc(Cl)c(Nc3ccccc3S(=O)(=O)C(C)C)n2)c(OC)cc1N1CCN(C)CC1 [Compound 2, N-(5-(5-chloro-4-(2-(isopropylsulfonyl)phenylamino)pyrimidin-2-ylamino)-4-methoxy-2-(4-methylpiperazin-1-yl)phenyl)acrylamide]
GI50 [2]: 33 nM
GI50 [3]: 10 nM
GI50 [4]: 870 nM
GI50 [5]: 1600 nM
GI50 [6]: 250 nM
GI50 [7]: 250 nM
GI50 [8]: 500 nM
GI50 [17]: 450 nM
GI50 [9]: 2000 nM
GI50 [10]: > 10000 nM
GI50 [11]: < 0.3 nM
GI50 [12]: 12 nM
GI50 [13]: 3600 nM
GI50 [14]: 5 nM
GI50 [15]: 670 nM
GI50 [16]: 43 nM
